The conditions of series [1]: Beagle, dog, in vivo.
For series [2] the following is noted: dog, in vivo, 0.8 mg.
The nature of series [3]: in vivo. The note with it: dog.

Like-named read-outs stand apart in the source and are kept apart here.

As to `CNC[C@H](O)c1ccc(O)c(O)c1` [epinephrine], the “buccal increase over basal level as share of the increase demonstrated by benchmark intramuscular injection” value in series [1] is listed as “approximately 20%”.

`C=CCN1CC[C@]23c4c5ccc(O)c4O[C@H]2C(=O)CC[C@@]3(O)[C@H]1C5` [naloxone]: the Tmax in series [2] was 15 min; in series [3] (8 mg), 18 min; in series [3] (im, 0.4 mg) it was 22 min. In addition, the AUC in series [3] (0.8 mg) was 8.33 ng·h/mL; in series [3] (8 mg), 58.3 ng·h/mL; in series [3] (im, 0.4 mg), 10 ng·h/mL. Also, the Cmax in series [3] (0.8 mg) worked out at 25 ng/mL; in series [3] (8 mg), 52 ng/mL; in series [3] (im, 0.4 mg), 9 ng/mL.

By Tmax is commonly meant the time at which the peak concentration occurs. Broadly, the AUC is concentration integrated over time. As a reminder, the Cmax is the peak of the concentration-time curve.

These data come from US20190070396A1 (priority 2017, published 2019).
